Assay results as given in patent US10611764B2 (Wisconsin Alumni Research Foundation, priority 2017, dated 2020).
Numbering of substitutions follows the chain as printed. Where two headings read alike, the source gives them in different places. Values belong to the molecule of their own block, whether it stands above or below them.

Key:
[1] = molecular target: T1, mouse AHR (mAHR B1-allele) (Mus musculus, UniProt P30561, M589L/N533S/P471L); test: cell-based; details: for biological response, eight-hour versus four-hour induction: 8 h vs 4 h
T1 sequence (P30561 10-805 P471L/N533S/M589L): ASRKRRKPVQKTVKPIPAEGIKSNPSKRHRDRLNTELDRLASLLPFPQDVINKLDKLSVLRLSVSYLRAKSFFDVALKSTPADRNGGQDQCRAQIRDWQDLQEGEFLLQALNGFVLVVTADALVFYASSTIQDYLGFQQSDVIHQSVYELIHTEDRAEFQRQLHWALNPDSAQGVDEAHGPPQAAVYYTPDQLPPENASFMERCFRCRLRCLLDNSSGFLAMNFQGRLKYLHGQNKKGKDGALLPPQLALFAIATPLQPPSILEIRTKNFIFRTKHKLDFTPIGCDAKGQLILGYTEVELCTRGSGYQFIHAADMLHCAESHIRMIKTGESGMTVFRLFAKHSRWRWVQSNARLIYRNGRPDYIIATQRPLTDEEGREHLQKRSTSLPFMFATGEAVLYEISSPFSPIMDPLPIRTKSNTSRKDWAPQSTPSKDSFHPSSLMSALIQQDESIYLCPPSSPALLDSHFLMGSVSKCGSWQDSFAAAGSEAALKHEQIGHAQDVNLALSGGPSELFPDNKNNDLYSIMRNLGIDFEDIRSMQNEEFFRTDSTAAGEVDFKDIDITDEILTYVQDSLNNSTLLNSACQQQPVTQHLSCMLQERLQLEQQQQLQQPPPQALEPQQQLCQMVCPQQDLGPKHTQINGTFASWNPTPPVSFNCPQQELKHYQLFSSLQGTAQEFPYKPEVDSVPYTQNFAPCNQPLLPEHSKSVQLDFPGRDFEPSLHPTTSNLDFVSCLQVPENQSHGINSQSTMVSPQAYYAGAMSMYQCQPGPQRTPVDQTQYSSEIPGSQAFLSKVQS
Procedure: The wild type and mutant mAHR were cloned into the XhoI/SalI cloning sites of pTARGET (Promega, Madison, Wis.) using routine PCR and molecular cloning procedures using the pSport-mAHR plasmid (PL65) as template (Dolwick, Swanson et al. 1993). For recombinant expression of mAHR, COS-1 cells were cultured in 6 cm dishes and transfected with 2 μg of wild-type or mutant mAHR expression vector. Twenty-four hours after transfection, cells were collected, and the whole cell extracts were prepared by celLytic M reagent (Sigma-Aldrich, St Louis, Mo.). 100 μg of whole cell extract was analyzed by western blot using antibodies that specifically recognize the mAHR (bear-2) and β-actin (Sigma).
COS-1 cells were cultured in 96-well plates and transiently transfected with pTarget vector containing the expression cassette of wild-type or mutant mAHR, or empty vector (3 ng), together with pGudLu6.1 DREs-driven luciferase reporter vector (14 ng) (Han, Nagy et al. 2004) and TK-renilla luciferase vector (3 ng) (Invitrogen, Carlsbad Calif.). […] The expressed luciferase activity was measured by ENSPIRE plate reader (Perkin Elmer, USA). Data analysis and simulation of dose response curves were performed using GraphPad Prism 5 (GraphPad software Inc., La Jolla, Calif.). The experiments were performed in triplicate and repeated at least three times. Representative results of one repeat are shown as mean±SEM.

[2] = molecular target: T2, mAHR genetic variant A375V (D-allele) (Mus musculus, UniProt P30561, A375V/F348L/M589L/N533S/P471L); test: Luciferase reporter gene assay, mAHR genetic variant A375V (D-allele); type: cell-based; details: compared with B-allele
T2 construct: expressed in transfected cells; host or cells: COS-1
T2 sequence (P30561 10-805 F348L/A375V/P471L/N533S/M589L): T1 sequence (P30561 10-805 P471L/N533S/M589L) with F339L, A366V
From the text: Physiological relevant ligands of the AHR would be expected to activate polymorphic receptors within species and structurally variant receptors across species. As a model of this idea an important endogenous AHR ligands would be expected to activate AHR genetic variants arising from the murine Ahr B1 and D alleles. These two well-known genetic variants, harbor a key sequence variation at residue 375, with alanine in the B1 allele, and valine in the D allele (A375V). Residue 375 is located near the medial position of the AHR-LBD. […] These observations support the notion that AHR genetic variants might function through these endogenous ligands to control normal physiological functions.

[3] = system: A375V variant of AHR (D allele); details: Chang 1993, Ema 1994, Poland 1994; cited from earlier work
mAHR Q377A mutant = molecular target: T3, mAHR Q377A mutant (Mus musculus, UniProt P30561, Q377A); test: Luciferase reporter gene assay, mutant mAHR Q377A in COS-1 cells; type: cell-based; details: relative to WT mAHR
T3 construct: expressed in transfected cells; host or cells: COS-1
T3 sequence (P30561 10-805 Q377A limits assumed): T1 sequence (P30561 10-805 P471L/N533S/M589L) with Q368A, L462P, S524N, L580M

mAHR H285A mutant = test: Luciferase reporter gene assay, mutant mAHR H285A in COS-1 cells; type: cell-based, mouse; details: relative to WT mAHR
[4] = system: mutant AHR, F289K, F281K, I373K, and L347R; test: Luciferase reporter gene assay, mAHR hydrophobic pocket mutants in COS-1 cells; type: cell-based, mouse
AHR = molecular target: T4, AHR (Rattus norvegicus, UniProt P41738); details: Rannug, Rannug et al. 1987; cited from earlier work
T4 sequence (P41738 10-853): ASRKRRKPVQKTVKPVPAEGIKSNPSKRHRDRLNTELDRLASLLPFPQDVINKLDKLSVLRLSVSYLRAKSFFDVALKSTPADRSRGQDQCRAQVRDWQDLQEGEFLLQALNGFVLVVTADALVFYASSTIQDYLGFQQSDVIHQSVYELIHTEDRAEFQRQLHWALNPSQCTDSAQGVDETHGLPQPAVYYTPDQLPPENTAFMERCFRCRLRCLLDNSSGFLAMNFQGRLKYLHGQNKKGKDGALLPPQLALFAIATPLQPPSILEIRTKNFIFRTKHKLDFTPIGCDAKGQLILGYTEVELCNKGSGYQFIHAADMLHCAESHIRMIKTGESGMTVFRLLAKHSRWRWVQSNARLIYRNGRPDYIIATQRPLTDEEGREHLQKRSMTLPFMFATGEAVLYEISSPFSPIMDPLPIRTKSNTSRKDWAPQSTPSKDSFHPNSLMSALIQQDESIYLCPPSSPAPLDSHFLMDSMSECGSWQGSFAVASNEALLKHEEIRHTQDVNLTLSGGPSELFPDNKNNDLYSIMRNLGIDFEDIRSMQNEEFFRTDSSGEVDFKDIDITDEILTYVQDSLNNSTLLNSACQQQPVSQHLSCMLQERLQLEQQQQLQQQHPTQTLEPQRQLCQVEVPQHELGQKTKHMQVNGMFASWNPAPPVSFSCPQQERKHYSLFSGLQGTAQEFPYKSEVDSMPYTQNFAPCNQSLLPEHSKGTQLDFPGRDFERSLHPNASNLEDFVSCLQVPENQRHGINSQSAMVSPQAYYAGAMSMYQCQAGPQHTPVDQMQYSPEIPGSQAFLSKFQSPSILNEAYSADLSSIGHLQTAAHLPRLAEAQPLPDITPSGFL

MH1C1 rat hepatoma cells = MH1C1 rat hepatoma cells exposed for three hours; cited from earlier work

Molecule: Nc1ccccc1C(=O)CC(N)C(=O)O (centres unmarked) [kynurenine (3 d, 6 m)]
EC50 [1]: 2.7 nM

Molecule: c1ccc2c(c1)cc1ccc3cccc4ccc2c1c34 [BaP, benzo[a]pyrene]
activation of the A375V D-allele [2]: barely stimulate

Molecule: Clc1cc2c(cc1Cl)Oc1cc(Cl)c(Cl)cc1O2 [TCDD, 2,3,7,8-tetrachlorodibenzo-p-dioxin]
binding to the A375V variant [3]: weakened binding

Molecule: O=c1cc[nH]c2ccccc12 [4(1H)-Quinolinone (4-HQ), 4(1H)-Quinolinone]
activity in AHR induction (in words) ([1]; known chemical derivatives of kynurenine, FIG. 10b): did not show any activity

Molecule: Nc1ccccc1C(=O)CC(N)C(=O)O (centres unmarked) [kynurenine]
fold increase of activity by incubation or long-term storage [1]: 100-1000 fold
biological response, eight-hour versus four-hour induction ([1]; COS-1 cells): higher biological response
EC50 ([1]; EC50 of AHR activation, COS-1 cells expressing mAHR, luciferase reporter, 4 hours): ~13000 nM
fold increase of AHR induction by incubation ([1]; after 18 days at room temperature): ~100 fold
fold increase of AHR induction by incubation ([1]; after three days at 37° C.): ~100 fold
maximum activity, higher than BaP ([1]; relative to BaP, FIG. 2A): 60%
maximum AHR activation, higher than that induced by FICZ ([1]; relative to FICZ, FIG. 1A): ~40%
effect of Q377A mutation on AHR induction activity (mAHR Q377A mutant): barely affected
effect of H285A mutation on AHR induction activity (mAHR H285A mutant): completely disrupts
effect of F289K and F281K mutations on responsiveness of AHR ([4]; F289K, F281K): completely abolished
effect of mutation of other hydrophobic residues to lysine or arginine on activity ([4]; I373K, L347R, FIG. 1c): completely abolished
activation of the A375V D-allele [2]: readily activate

Molecule: 6-formylindolo [3,2-b] carbazole [FICZ]
biological response, eight-hour versus four-hour induction ([1]; COS-1 cells): slightly reduced
activity in the 20-hour induction ([1]; COS-1 cells, 20 h vs 8 h and 4 h): further reduced
EC50 ([1]; read-out: EC50 of AHR activation, COS-1 cells expressing mAHR, luciferase reporter, 4 hours): 0.036 nM
effect of H285A mutation on AHR induction activity (mAHR H285A mutant): remains partially receptive
Kd (AHR): 0.07 nM
EC50 (MH1C1 rat hepatoma cells): 0.034 nM

AC50 [1]: ~5 nM
Molecule: c1ccc2c(c1)NC1=C3C2=NCC[C@H]3c2ccccc2N1 [274 ion fraction]
